Experimental data: US20060142291A1, “Use of formaldehyde and formaldehyde-releasing compounds in a composition for controlling mycobacteria” (priority 2004, published 2006)

What was measured:
Assay in all cases: Activity of bactericidal solutions against mycobacteria (MIC, 7H9 liquid medium, turbidity and streaking on 7H10 agar)
Format in all cases: cell-based
[1] = test system: M. immunogenum ATCC 700505; details: 3 weeks incubation, % by weight; for Activity at MIC (%) M. immunogenum (28° C.): ATCC 700505, 28° C.; for Activity at MIC (%) M. immunogenum (37° C.): ATCC 700505, 37° C.
M. chelonae ATCC 19236 = details: ATCC 19236, 37° C., 3 weeks incubation, % by weight
M. terrae ATCC 15755 = details: ATCC 15755, 37° C., 3 weeks incubation, % by weight
M. chelonae ATCC 35725 = details: for Activity at MIC (%) M. chelonae (28° C.): ATCC 35725, 28° C., 3 weeks incubation, % by weight

SMILES | Activity at MIC (%) M. immunogenum (28° C.) [1] | Activity at MIC (%) M. immunogenum (37° C.) [1] | Activity at MIC (%) M. chelonae (37° C.) (M. chelonae ATCC 19236) | Activity at MIC (%) M. terrae (37° C.) (M. terrae ATCC 15755) | Activity at MIC (%) M. chelonae (28° C.) (M. chelonae ATCC 35725) | usage concentration active against M. chelonae (M. chelonae ATCC 35725; strain and temperature not stated)
OCCN1CN(CCO)CN(CCO)C1 [Comparison 1, 2,2′,2″-(hexahydro-1,3,5-triazine-1,3,5-triyl)triethanol] | ≦0.075% | ≦0.075% | 0.3% | 0.3% | 0.3% | 0.3 % by weight
CCCCCCCCn1sccc1=O [Comparison 2, 2-octyl-3(2H)-isothiazol-3-one] | >0.3% | >0.3% | >0.3% | >0.3% | >0.3% | 
